pIC50: −log10 of the molar value. Converted amounts (≈) assume the structure as drawn. Read-outs that look alike come from different tables or passages of the source.
Key:
CHI Log D procedure = type: physicochemical; conditions: for CHI Log D: pH 7.4
[1] = biological target: T1, full-length beta-Catenin (Uniprot ID P35222) (Homo sapiens, UniProt P35222); experiment: Fluorescence polarization IC50 (beta-catenin / 5FAM-TCF4 10-53 competition); type: binding
T1 construct: 10 nM full-length beta-Catenin (Uniprot ID P35222)
T1 sequence (P35222 1-781): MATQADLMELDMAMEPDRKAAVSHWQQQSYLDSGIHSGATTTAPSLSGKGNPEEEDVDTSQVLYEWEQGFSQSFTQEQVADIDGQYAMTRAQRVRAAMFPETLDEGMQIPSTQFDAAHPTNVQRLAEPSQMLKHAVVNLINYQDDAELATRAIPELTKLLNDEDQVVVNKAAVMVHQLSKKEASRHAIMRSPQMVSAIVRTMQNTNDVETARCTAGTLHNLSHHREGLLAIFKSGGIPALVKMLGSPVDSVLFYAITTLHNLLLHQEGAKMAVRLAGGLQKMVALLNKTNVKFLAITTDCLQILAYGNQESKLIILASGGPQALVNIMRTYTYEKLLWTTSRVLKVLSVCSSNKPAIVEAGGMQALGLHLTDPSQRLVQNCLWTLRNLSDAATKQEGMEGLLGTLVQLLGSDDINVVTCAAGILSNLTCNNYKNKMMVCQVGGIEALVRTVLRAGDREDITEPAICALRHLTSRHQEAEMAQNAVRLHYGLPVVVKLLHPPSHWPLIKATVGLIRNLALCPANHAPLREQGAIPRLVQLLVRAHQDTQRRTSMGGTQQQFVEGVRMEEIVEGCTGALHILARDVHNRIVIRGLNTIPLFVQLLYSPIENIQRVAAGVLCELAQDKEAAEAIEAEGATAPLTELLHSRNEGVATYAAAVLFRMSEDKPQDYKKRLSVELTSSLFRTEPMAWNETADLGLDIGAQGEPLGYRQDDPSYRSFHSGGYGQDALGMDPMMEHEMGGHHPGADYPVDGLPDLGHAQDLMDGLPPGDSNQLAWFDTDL

Solubility in PBS = type: physicochemical
Procedure, shortened: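 HPLC quantitation of peptide remaining in the PBS supernatant after ultracentrifugation, referenced to a 50 μM solution in DMSO.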

[2] = fluorescence polarization, read-out: beta-Catenin FP IC50
[3] = fluorescence polarization, beta-catenin, read-out: FP EC50

CHI Log D (CHI Log D procedure) | pIC50 [1, 2] | pIC50 ([1]; read-out: FP EC50) | Solubility (Solubility in PBS) [µM] | pIC50 [1, 3] | pIC50 ([1]; read-out: beta-Catenin FP IC50) | pIC50 ([1]; Table E2-1, read-out: beta-Catenin FP IC50) | chromatographic logD (CHI Log D procedure; pH 7.4, CHI Log D) | SMILES
2.087 | 6.74 | 6.74 | 50 (≈ 94.3 µg/mL) | – | – | – | – | CO[C@H](C)[C@@H]1NC(=O)[C@H](CC(=O)O)NC(=O)[C@]2(CC=CCCCC3(CCCC=CCCCCCC[C@@](C)(C(=O)N[C@@H](Cc4ccccc4)C(=O)N[C@@H](Cc4csc5ccccc45)C(=O)N[C@@H](CCC(N)=O)C(N)=O)NC(=O)[C@H](CCC(N)=O)NC(=O)[C@H](Cc4ccccc4)NC(=O)[C@H](C)NC(=O)[C@H](C)NC(=O)[C@H](CCC(=O)O)NC(=O)[C@H](CC(=O)O)NC3=O)NC1=O)CCCN2C(C)=O (stereo partly drawn) [I-541, Ac-PL3-Asp-TOMe-B5-Asp-Glu-Ala-Ala-Phe-Gln-S8-Phe-BztA-Gln-NH2]
1.879 | – | – | 30 (≈ 59.2 µg/mL) | 5.74 | 5.74 | – | – | CCN(CC(=O)O)C[C@@H]1NC(=O)[C@H](CC(=O)O)NC(=O)C2(CCCC=CCCCOC(=O)N3CC[C@@](C(=O)N[C@@H](Cc4ccsc4)C(=O)N[C@@H](Cc4csc5ccccc45)C(=O)N[C@@H](CCC(N)=O)C(N)=O)(C3)NC(=O)[C@H](CC(C)C)NC(=O)[C@H](Cc3ccccc3)NC(=O)[C@H](C)NC(=O)[C@H](C)NC1=O)CCCC=CC[C@]1(CCCN1C(C)=O)C(=O)N[C@@H](CC(=O)O)C(=O)N[C@@H](CC(C)(C)C)C(=O)N2 (stereo partly drawn) [I-972, Ac-PL3-Asp-Npg-B5-Asp-EtGA-Ala-Ala-Phe-Leu-PyrS2-3Thi-BztA-Gln-NH2]
2.296 | – | – | 48 (≈ 88.2 µg/mL) | 5.88 | – | 5.88 | – | CC(=O)N1CCC[C@]12CC=CCCCC1(CCCC=CCCCCCC[C@@](C)(C(=O)N[C@@H](Cc3ccccc3)C(=O)N[C@@H](Cc3csc4ccccc34)C(=O)N[C@@H](CCC(N)=O)C(N)=O)NC(=O)[C@H](C)NC(=O)[C@H](Cc3cccc(C(F)(F)F)c3)NC(=O)[C@H](C)NC(=O)[C@H](C)NC(=O)[C@H](CC(=O)O)NC(=O)[C@H](CC(=O)O)NC1=O)NC(=O)[C@H](C)NC(=O)[C@H](CC(=O)O)NC2=O (stereo partly drawn) [I-376, Ac-PL3-Asp-Ala-B5-Asp-Asp-Ala-Ala-3F3MeF-Ala-S8-Phe-BztA-Gln-NH2]
2.61 | 7.10 | 7.10 | 10 (≈ 18.8 µg/mL) | – | – | – | – | CC(=O)N1CCC[C@]12CC=CCCCC1(CCCC=CCCCCCC[C@@](C)(C(=O)N[C@@H](Cc3ccccc3)C(=O)N[C@@H](Cc3csc4ccccc34)C(=O)N[C@H](Cc3c[nH]cn3)C(N)=O)NC(=O)[C@H](CC(N)=O)NC(=O)[C@H](Cc3ccccc3)NC(=O)[C@H](C)NC(=O)[C@H](C)NC(=O)[C@H](CCC(=O)O)NC(=O)[C@H](CC(=O)O)NC1=O)NC(=O)[C@H](CC(C)C)NC(=O)[C@H](CC(=O)O)NC2=O (stereo partly drawn) [I-745, Ac-PL3-Asp-Leu-B5-Asp-Glu-Ala-Ala-Phe-Asn-S8-Phe-BztA-dHis-NH2]
2.859 | 6.26 | 6.26 | 48 (≈ 92.4 µg/mL) | – | – | – | – | CC[C@H](C)[C@@H]1NC(=O)[C@H](CC(=O)O)NC(=O)[C@]2(CC=CCCCC3(CCCC=CCCCCCC[C@@](C)(C(=O)N[C@@H](Cc4ccccc4)C(=O)N[C@@H](Cc4csc5ccccc45)C(=O)N[C@@H](CCC(N)=O)C(N)=O)NC(=O)[C@H](CCC(N)=O)NC(=O)[C@H](Cc4ccccc4)NC(=O)[C@H](CC(C)C)NC(=O)[C@H](C)NC(=O)[C@H](CCC(=O)O)NC(=O)[C@H](CC(=O)O)NC3=O)NC1=O)CCCN2C(C)=O (stereo partly drawn) [I-658, Ac-PL3-Asp-Ile-B5-Asp-Glu-Ala-Leu-Phe-Gln-S8-Phe-BztA-Gln-NH2]
– | – | – | 10 (≈ 18.9 µg/mL) | – | 7.00 | – | 3.54 | CC(=O)N1CCC[C@]12CC=CCCCC1(CCCC=CCCCCCC[C@@](C)(C(=O)N[C@@H](Cc3ccccc3Cl)C(=O)N[C@@H](Cc3csc4ccccc34)C(=O)N[C@@H](C(N)=O)[C@H](C)O)NC(=O)[C@H](CC(C)C)NC(=O)[C@H](Cc3ccccc3)NC(=O)[C@H](C)NC(=O)[C@H](C)NC(=O)[C@H](CCC(=O)O)NC(=O)[C@H](CC(=O)O)NC1=O)NC(=O)[C@H](CC(C)(C)C)NC(=O)[C@H](CC(=O)O)NC2=O (stereo partly drawn) [I-1098, Ac-PL3-Asp-Npg-B5-Asp-Glu-Ala-Ala-Phe-Leu-S8-2ClF-BztA-dThr-NH2]
